Assay results taken from patent publication US10472356B2, “Bicyclic ketone sulfonamide compounds” (AMGEN INC., priority 2015, dated 2019).

What was measured:
Assay type in all cases: cell-based
[1] = molecular target: T1, human Nav1.7 (Homo sapiens, UniProt Q15858); test: Nav 1.7 IWQ In Vitro Assay (IonWorks Quattro); details: HEK293 cells stably transfected with human Nav 1.7; IonWorks Quattro population patch-clamp; 26th pulse to −20 mV, 5 Hz; cells unclamped 5 to 8 minutes with compound; read-out: hNav1.7 IWQ IC50
T1 construct: expressed in transfected cells; host or cells: HEK293
T1 sequence (Q15858 whole entry): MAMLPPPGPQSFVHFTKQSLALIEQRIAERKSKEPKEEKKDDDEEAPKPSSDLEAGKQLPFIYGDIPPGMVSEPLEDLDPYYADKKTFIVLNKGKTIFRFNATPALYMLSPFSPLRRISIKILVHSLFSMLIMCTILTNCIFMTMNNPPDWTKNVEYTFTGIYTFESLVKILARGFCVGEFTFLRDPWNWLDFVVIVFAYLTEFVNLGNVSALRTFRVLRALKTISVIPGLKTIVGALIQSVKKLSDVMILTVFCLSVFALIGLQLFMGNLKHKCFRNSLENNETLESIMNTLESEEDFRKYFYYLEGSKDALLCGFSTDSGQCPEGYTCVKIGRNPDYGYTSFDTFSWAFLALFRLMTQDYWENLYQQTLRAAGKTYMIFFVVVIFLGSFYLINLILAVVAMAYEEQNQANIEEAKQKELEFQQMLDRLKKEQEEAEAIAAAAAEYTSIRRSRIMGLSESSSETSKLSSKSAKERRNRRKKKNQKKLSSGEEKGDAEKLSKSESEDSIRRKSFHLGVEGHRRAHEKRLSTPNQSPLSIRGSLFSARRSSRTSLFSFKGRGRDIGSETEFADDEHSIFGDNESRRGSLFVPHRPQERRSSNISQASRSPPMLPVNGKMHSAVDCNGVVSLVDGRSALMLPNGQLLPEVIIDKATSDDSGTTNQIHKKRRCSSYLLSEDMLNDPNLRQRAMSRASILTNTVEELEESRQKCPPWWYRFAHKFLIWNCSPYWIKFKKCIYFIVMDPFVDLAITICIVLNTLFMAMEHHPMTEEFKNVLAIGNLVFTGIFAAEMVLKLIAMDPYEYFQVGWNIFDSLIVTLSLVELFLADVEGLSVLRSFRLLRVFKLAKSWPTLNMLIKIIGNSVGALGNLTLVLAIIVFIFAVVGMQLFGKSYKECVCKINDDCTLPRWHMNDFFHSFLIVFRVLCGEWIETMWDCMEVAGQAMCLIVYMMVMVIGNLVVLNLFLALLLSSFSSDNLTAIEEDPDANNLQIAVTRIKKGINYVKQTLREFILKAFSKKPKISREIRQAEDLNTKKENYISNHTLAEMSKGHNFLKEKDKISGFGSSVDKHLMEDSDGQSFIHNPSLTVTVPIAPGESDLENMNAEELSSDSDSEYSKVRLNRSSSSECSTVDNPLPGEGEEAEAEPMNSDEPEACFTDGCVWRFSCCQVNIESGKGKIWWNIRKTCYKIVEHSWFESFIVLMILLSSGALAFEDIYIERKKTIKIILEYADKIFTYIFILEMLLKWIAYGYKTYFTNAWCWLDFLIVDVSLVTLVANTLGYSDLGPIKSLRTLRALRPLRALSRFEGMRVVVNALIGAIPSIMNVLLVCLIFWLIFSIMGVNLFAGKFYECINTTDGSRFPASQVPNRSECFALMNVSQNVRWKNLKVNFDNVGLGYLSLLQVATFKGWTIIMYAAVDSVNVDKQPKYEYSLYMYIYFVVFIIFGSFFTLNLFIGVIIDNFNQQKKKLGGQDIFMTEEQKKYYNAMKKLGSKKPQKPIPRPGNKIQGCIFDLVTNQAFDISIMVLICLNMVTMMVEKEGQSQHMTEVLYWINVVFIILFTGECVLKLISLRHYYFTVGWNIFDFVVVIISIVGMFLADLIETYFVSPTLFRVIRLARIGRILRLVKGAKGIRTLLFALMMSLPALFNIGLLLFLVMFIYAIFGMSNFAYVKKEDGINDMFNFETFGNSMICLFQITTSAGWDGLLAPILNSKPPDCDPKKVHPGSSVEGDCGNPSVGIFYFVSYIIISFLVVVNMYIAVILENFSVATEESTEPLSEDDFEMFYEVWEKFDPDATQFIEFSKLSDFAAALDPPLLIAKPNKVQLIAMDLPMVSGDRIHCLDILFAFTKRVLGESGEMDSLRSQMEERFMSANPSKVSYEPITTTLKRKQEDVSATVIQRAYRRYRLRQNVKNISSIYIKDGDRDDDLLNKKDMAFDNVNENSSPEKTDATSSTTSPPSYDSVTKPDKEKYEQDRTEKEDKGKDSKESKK
Description: Nav 1.7 or Nav 1.5 IWQ In Vitro Assay
HEK293 cells stably transfected with either human Nav 1.7 or human Nav 1.5 were recorded in population patch-clamp mode with the IonWorks® Quattro automated electrophysiology system (Molecular Devices, LLC, Sunnyvale, Calif.). Cells were voltage clamped to −110 mV for three seconds (Nav 1.7) or half a second (Nav 1.5) and sodium currents were elicited by a train of 26 depolarizations of 150 msec duration to −20 mV (Nav 1.7) or 0 mV (Nav 1.5) at a frequency of 5 Hz. Cells were then left unclamped for a period of 5 to 8 minutes while a single concentration of test compound was added. Following this compound incubation period, cells were then reclamped to −110 mV for three seconds (Nav1.7) or half a second (Nav1.5) to recover unbound channels and put through the same 26 pulse voltage protocol as above. Peak inward current during the 26th pulse to −20 mV (Nav 1.7) or 0 mV (Nav 1.5) in the presence of compound was divided by the peak inward current evoked by the 26th pulse to −20 mV (Nav1.7) or 0 mV (Nav1.5) in the absence of compound to determine percent inhibition. Concentration-response curves of percent.

[2] = molecular target: T1, human Nav1.7; test: Nav 1.7 IWB In Vitro Assay (IonWorks Barracuda); details: HEK293 cells stably transfected with human Nav 1.7; IonWorks Barracuda population patch-clamp; cells clamped to −20 mV for 4 minutes with compound; 26th pulse; read-out: hNav1.7 IWB IC50
How it was run: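 IC50 derived from concentration-response of percent block of the 26th-pulse peak inward current, compound vs none. Protocol: stable human Nav 1.7 HEK293 cells on automated population patch clamp, held at −110 mV, 5 Hz train of 150 ms steps to −20 mV, 4 min compound exposure depolarized at −20 mV, 3 s repolarization, train repeated.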

[3] = molecular target: T1, human Nav1.7; test: Nav 1.7 In Vitro PatchXpress (PX) Assay; details: HEK 293 cells stably transfected with human Nav1.7; PatchXpress whole cell voltage clamp; partially inactivated state (holding potential yielding 20 to 50% inactivation); read-out: hNav1.7 PX IC50
How it was run: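 Percent inhibition of peak sodium current taken after 3 min exposure to one compound concentration, 3–5 cells each, with IC50 curve fits. Partially inactivated channels (20–50% inactivation at holding potential) in Nav1.7-HEK 293 cells, activated by 20 ms steps to −10 mV every 10 s.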

SMILES | IC50 [1] | IC50 [2] | IC50 [3]
COc1cc(-c2cc(F)cc(Cl)c2)c(F)cc1-n1c2c(ccc1=O)CN(S(=O)(=O)Nc1ncns1)CC2 (racemic) [5-(Rac), (Rac)-1-(3′-chloro-2,5′-difluoro-5-methoxy-4-biphenylyl)-2-oxo-N-1,2,4-thiadiazol-5-yl-1,5,7,8-tetrahydro-1,6-naphthyridine-6(2H)-sulfonamide] | 7.3 nM | 6.7 nM | 54.6 nM
COc1cc(-c2cc(Cl)ccc2C)c(F)cc1-n1c2c(ccc1=O)CN(S(=O)(=O)Nc1ccon1)CC2 (racemic) [9-(Rac), (Rac)-1-(5′-chloro-2-fluoro-5-methoxy-2′-methyl-4-biphenylyl)-N-3-isoxazolyl-2-oxo-1,5,7,8-tetrahydro-1,6-naphthyridine-6(2H)-sulfonamide] | 4.6 nM | 5.4 nM | 30.7 nM
COc1cc(-c2cc(F)cc(Cl)c2)c(F)cc1-n1c2c(ccc1=O)CN(S(=O)(=O)Nc1ccc(F)cn1)CC2 (racemic) [Example 12-(Rac), (Rac)-1-(3′-chloro-2,5′-difluoro-5-methoxy-4-biphenylyl)-N-(5-fluoro-2-pyridinyl)-2-oxo-1,5,7,8-tetrahydro-1,6-naphthyridine-6(2H)-sulfonamide] | 81.5 nM | 91.3 nM | 106 nM
COc1cc(-c2cc(F)cc(Cl)c2)c(F)cc1-n1c2c(ccc1=O)CN(S(=O)(=O)Nc1cccc(F)n1)CC2 (racemic) [Example 13-(Rac), (Rac)-1-(3′-chloro-2,5′-difluoro-5-methoxy-4-biphenylyl)-N-(6-fluoro-2-pyridinyl)-2-oxo-1,5,7,8-tetrahydro-1,6-naphthyridine-6(2H)-sulfonamide] | 33.2 nM | 27.6 nM | 123 nM
COc1cc(-c2cc(F)cc(F)c2)c(F)cc1-n1c2c(ccc1=O)CN(S(=O)(=O)Nc1cccc(F)n1)CC2 (racemic) [Example 14-(Rac), (Rac)-N-(6-fluoro-2-pyridinyl)-2-oxo-1-(2,3′,5′-trifluoro-5-methoxy-4-biphenylyl)-1,5,7,8-tetrahydro-1,6-naphthyridine-6(2H)-sulfonamide] | 44.4 nM | 25.6 nM | 74.2 nM
COc1cc(-c2ccc(Cl)c(C)c2)c(F)cc1-n1c2c(ccc1=O)CN(S(=O)(=O)Nc1ccon1)CC2 (racemic) [Example 24-(Rac), (Rac)-1-(4′-chloro-2-fluoro-5-methoxy-3′-methyl-4-biphenylyl)-N-3-isoxazolyl-2-oxo-1,5,7,8-tetrahydro-1,6-naphthyridine-6(2H)-sulfonamide] | 6.7 nM | – | 73.7 nM
COc1cc(-c2cc(F)cc(F)c2)c(F)cc1-n1c2c(ccc1=O)CN(S(=O)(=O)Nc1ccon1)CC2 (single isomer, unassigned) [Example 25-P, P-N-3-isoxazolyl-2-oxo-1-(2,3′,5′-trifluoro-5-methoxy-4-biphenylyl)-1,5,7,8-tetrahydro-1,6-naphthyridine-6(2H)-sulfonamide] | 7.2 nM | – | 176 nM
COc1cc(CCC(F)(F)F)c(Cl)cc1-n1c2c(ccc1=O)CN(S(=O)(=O)Nc1cccnn1)CC2 (single isomer, unassigned) [Example 96-P, P-1-(5-chloro-2-methoxy-4-(3,3,3-trifluoropropyl)phenyl)-2-oxo-N-(pyridazin-3-yl)-1,2,7,8-tetrahydro-1,6-naphthyridine-6(5H)-sulfonamide] | 9 nM | 33.9 nM | –
COc1cc(-c2cc(F)c(F)c(OC)c2)c(F)cc1-n1c2c(ccc1=O)CN(S(=O)(=O)Nc1cccnn1)CC2 [Example 79, P-2-oxo-N-(pyridazin-3-yl)-1-(2,3′,4′-trifluoro-5,5′-dimethoxy-[1,1′-biphenyl]-4-yl)-1,2,7,8-tetrahydro-1,6-naphthyridine-6(5H)-sulfonamide] | 3.9 nM | 2.6 nM | –
COc1cc(-c2cnc(OC)c(C(F)(F)F)c2)c(F)cc1-n1c2c(ccc1=O)CN(S(=O)(=O)Nc1cccnn1)CC2 [Example 80, P-1-(5-fluoro-2-methoxy-4-(6-methoxy-5-(trifluoromethyl)pyridin-3-yl)phenyl)-2-oxo-N-(pyridazin-3-yl)-1,2,7,8-tetrahydro-1,6-naphthyridine-6(5H)-sulfonamide] | 5.4 nM | 13.9 nM | –
COc1cc(-c2ccc(F)c(OC(F)(F)F)c2)c(F)cc1-n1c2c(ccc1=O)CN(S(=O)(=O)Nc1cccnn1)CC2 [Example 81, P-1-(2,4′-difluoro-5-methoxy-3′-(trifluoromethoxy)-[1,1′-biphenyl]-4-yl)-2-oxo-N-(pyridazin-3-yl)-1,2,7,8-tetrahydro-1,6-naphthyridine-6(5H)-sulfonamide] | 3.9 nM | 8.6 nM | –
COc1cc(-c2ccc(OC)c(C(F)(F)F)c2)c(F)cc1-n1c2c(ccc1=O)CN(S(=O)(=O)Nc1cccnn1)CC2 [Example 82, P-1-(2-fluoro-4′,5-dimethoxy-3′-(trifluoromethyl)-[1,1′-biphenyl]-4-yl)-2-oxo-N-(pyridazin-3-yl)-1,2,7,8-tetrahydro-1,6-naphthyridine-6(5H)-sulfonamide] | 15.6 nM | 25.8 nM | –
COc1cc(-c2cc(OC)c(-n3c4c(ccc3=O)CN(S(=O)(=O)Nc3cccnn3)CC4)cc2F)cc(C(F)(F)F)c1 [Example 83, P-1-(2-fluoro-3′,5-dimethoxy-5′-(trifluoromethyl)-[1,1′-biphenyl]-4-yl)-2-oxo-N-(pyridazin-3-yl)-1,2,7,8-tetrahydro-1,6-naphthyridine-6(5H)-sulfonamide] | 3.4 nM | 5.1 nM | –
COc1cc(-c2cc(F)cc(C(F)F)c2)c(F)cc1-n1c2c(ccc1=O)CN(S(=O)(=O)Nc1cccnn1)CC2 [Example 84, P-1-(3′-(difluoromethyl)-2,5′-difluoro-5-methoxy-[1,1′-biphenyl]-4-yl)-2-oxo-N-(pyridazin-3-yl)-1,2,7,8-tetrahydro-1,6-naphthyridine-6(5H)-sulfonamide] | 8.3 nM | 17.1 nM | –
COc1cc(-c2ccc(F)c(C(F)F)c2)c(F)cc1-n1c2c(ccc1=O)CN(S(=O)(=O)Nc1cccnn1)CC2 [Example 85, P-1-(3′-(difluoromethyl)-2,4′-difluoro-5-methoxy-[1,1′-biphenyl]-4-yl)-2-oxo-N-(pyridazin-3-yl)-1,2,7,8-tetrahydro-1,6-naphthyridine-6(5H)-sulfonamide] | 4.3 nM | 17.4 nM | –
COc1cc(-c2cc(F)c(F)c(C(F)F)c2)c(F)cc1-n1c2c(ccc1=O)CN(S(=O)(=O)Nc1cccnn1)CC2 [Example 86, P-1-(3′-(difluoromethyl)-2,4′,5′-trifluoro-5-methoxy-[1,1′-biphenyl]-4-yl)-2-oxo-N-(pyridazin-3-yl)-1,2,7,8-tetrahydro-1,6-naphthyridine-6(5H)-sulfonamide] | 7.1 nM | 14.3 nM | –
COc1cc(-c2ccc(C(F)F)c(F)c2)c(F)cc1-n1c2c(ccc1=O)CN(S(=O)(=O)Nc1cccnn1)CC2 [Example 87, P-1-(4′-(difluoromethyl)-2,3′-difluoro-5-methoxy-[1,1′-biphenyl]-4-yl)-2-oxo-N-(pyridazin-3-yl)-1,2,7,8-tetrahydro-1,6-naphthyridine-6(5H)-sulfonamide] | 12.4 nM | 19 nM | –
COc1cc(-c2cc(F)cc(F)c2)c(F)cc1-n1c2c(ccc1=O)CN(S(=O)(=O)Nc1ccncn1)CC2 [Example 88, P-2-oxo-N-(pyrimidin-4-yl)-1-(2,3′,5′-trifluoro-5-methoxy-[1,1′-biphenyl]-4-yl)-1,2,7,8-tetrahydro-1,6-naphthyridine-6(5H)-sulfonamide] | – | 31.2 nM | 475 nM
COc1cc(CCC(F)(F)F)c(F)cc1-n1c2c(ccc1=O)CN(S(=O)(=O)Nc1ccon1)CC2 [Example 94, P-1-(5-fluoro-2-methoxy-4-(3,3,3-trifluoropropyl)phenyl)-N-(isoxazol-3-yl)-2-oxo-1,2,7,8-tetrahydro-1,6-naphthyridine-6(5H)-sulfonamide] | 18.7 nM | 33.5 nM | –
COc1cc(CCC(F)(F)F)c(F)cc1-n1c2c(ccc1=O)CN(S(=O)(=O)Nc1cccnn1)CC2 [Example 95, P-1-(5-fluoro-2-methoxy-4-(3,3,3-trifluoropropyl)phenyl)-2-oxo-N-(pyridazin-3-yl)-1,2,7,8-tetrahydro-1,6-naphthyridine-6(5H)-sulfonamide] | 21 nM | 36.5 nM | –
